In PMC8044178, “Structural basis of norepinephrine recognition and transport inhibition in neurotransmitter transporters” (Nature Communications, 2021):
Where “and” joins values, the source holds several entries; their conditions need not be identical. Identical values can stand only once.

Assays:
dDAT D121G/S426M = conditions: cited from earlier work
dDATNET = target: T1, dDATNET (Drosophila melanogaster, UniProt Q7K4Y6, D121G/DEL162-202/F471L/L415A/S426M/V74A); assay: [3H] nisoxetine binding, scintillation proximity assay, purified dDATNET; conditions: for Specific CPM/p.mole protein: DAT_NET, single replicates
T1 construct: GFP-8x-His (C); made in house; host or cells: HEK293S GnTI- cells, BacMam baculovirus transduction
Description: (§1) Binding assays were performed with 20 nM of purified dDAT protein by scintillation proximity assay. For determining nisoxetine Kd, [^3H] Nisoxetine (Perkin Elmer) (in 1:5 molar ratio) was used in the range of 0.1 nM to 500 nM with 100 µM desipramine added to the control samples. Competition assays were done with 50 nM [^3H] […] The assays were done in 1 mM DDM, 0.2 mM CHS, 20 mM Tris-Cl (pH 8), 300 mM NaCl and 5% glycerol. The background values were subtracted to plot the final curves in GraphPad prism v5.0.1 and the Kd values were calculated. The IC50 values obtained from binding competition assays were used to deduce the Ki values by Cheng–Prusoff’s equation.

dDATmfc = target: T2, dDATmfc (Drosophila melanogaster, UniProt Q7K4Y6, DEL162-202/F471L/L415A/V74A); assay: [3H] nisoxetine binding, scintillation proximity assay, purified dDATmfc; conditions: for Specific CPM/p.mole protein: DATmfc, single replicates
T2 construct: GFP-8x-His (C); made in house; host or cells: HEK293S GnTI- cells, BacMam baculovirus transduction
Description: as §1

WT dDAT = conditions: read-out: nisoxetine-binding affinity Kd; cited from earlier work
hNET = conditions: read-out: nisoxetine-binding affinity Kd; cited from earlier work

Row | SMILES | increment in ability to compete for nisoxetine / affinity with hNET-like mutations D121G and S426M in subsite B (dDAT D121G/S426M) | Specific CPM/p.mole protein (dDATNET; Nisox 0.1 nM) | Specific CPM/p.mole protein (dDATNET; Nisox 100 nM) | Specific CPM/p.mole protein (dDATNET; Nisox 300 nM) | Specific CPM/p.mole protein (dDATNET; Nisox 500 nM) | Kd (dDATNET; Nisoxetine Kd, dDATNET) | Kd (dDATNET; dissociation constants (Kd) for nisoxetine, range over the dDAT constructs used in this study (dDATNET, dDATmfc)) | Kd (dDATmfc) | Specific CPM/p.mole protein (dDATmfc; Nisox 0.1 nM) | Specific CPM/p.mole protein (dDATmfc; Nisox 1 nM) | Specific CPM/p.mole protein (dDATmfc; Nisox 3 nM) | Specific CPM/p.mole protein (dDATmfc; Nisox 10 nM) | Specific CPM/p.mole protein (dDATmfc; Nisox 30 nM) | Specific CPM/p.mole protein (dDATmfc; Nisox 100 nM) | Specific CPM/p.mole protein (dDATmfc; Nisox 300 nM) | Specific CPM/p.mole protein (dDATmfc; Nisox 500 nM) | Kd (WT dDAT) | Kd (hNET)
1 | COC(=O)[C@H]1[C@@H](OC(=O)c2ccccc2)C[C@@H]2CC[C@H]1N2C [cocaine] | 10 fold | – | – | – | – | – | – | – | – | – | – | – | – | – | – | – | – | –
2 | CNCCC(Oc1ccccc1OC)c1ccccc1 (stereo not drawn) [nisoxetine] | – | 20 CPM/p.mole protein | 565 CPM/p.mole protein and 636 CPM/p.mole protein and 590 CPM/p.mole protein and 524 CPM/p.mole protein and 548 CPM/p.mole protein and 546 CPM/p.mole protein and 490 CPM/p.mole protein and 531 CPM/p.mole protein and 494 CPM/p.mole protein | 687 CPM/p.mole protein and 533 CPM/p.mole protein (2×) and 630 CPM/p.mole protein and 583 CPM/p.mole protein and 563 CPM/p.mole protein and 581 CPM/p.mole protein and 730 CPM/p.mole protein and 516 CPM/p.mole protein | 735 CPM/p.mole protein and 683 CPM/p.mole protein and 709 CPM/p.mole protein and 618 CPM/p.mole protein and 586 CPM/p.mole protein and 593 CPM/p.mole protein and 630 CPM/p.mole protein and 670 CPM/p.mole protein and 642 CPM/p.mole protein | 2.79 ± 0.27 nM | 2.8 to 3.8 nM | 3.82 ± 0.39 nM | 7 CPM/p.mole protein and 10 CPM/p.mole protein and 3 CPM/p.mole protein and 24 CPM/p.mole protein and 15 CPM/p.mole protein (2×) and 14 CPM/p.mole protein and 9 CPM/p.mole protein and 6 CPM/p.mole protein | 126 CPM/p.mole protein and 128 CPM/p.mole protein and 141 CPM/p.mole protein and 114 CPM/p.mole protein and 102 CPM/p.mole protein and 95 CPM/p.mole protein and 97 CPM/p.mole protein and 78 CPM/p.mole protein and 120 CPM/p.mole protein | 292 CPM/p.mole protein and 269 CPM/p.mole protein and 300 CPM/p.mole protein and 210 CPM/p.mole protein and 245 CPM/p.mole protein and 211 CPM/p.mole protein and 113 CPM/p.mole protein and 184 CPM/p.mole protein and 198 CPM/p.mole protein | 455 CPM/p.mole protein (2×) and 499 CPM/p.mole protein and 413 CPM/p.mole protein (2×) and 477 CPM/p.mole protein and 371 CPM/p.mole protein (2×) and 397 CPM/p.mole protein | 491 CPM/p.mole protein and 537 CPM/p.mole protein and 503 CPM/p.mole protein and 506 CPM/p.mole protein and 442 CPM/p.mole protein (2×) and 439 CPM/p.mole protein and 427 CPM/p.mole protein and 408 CPM/p.mole protein | 566 CPM/p.mole protein and 545 CPM/p.mole protein and 533 CPM/p.mole protein and 507 CPM/p.mole protein and 558 CPM/p.mole protein and 473 CPM/p.mole protein and 465 CPM/p.mole protein and 441 CPM/p.mole protein and 405 CPM/p.mole protein | 627 CPM/p.mole protein and 611 CPM/p.mole protein and 570 CPM/p.mole protein and 569 CPM/p.mole protein and 527 CPM/p.mole protein and 520 CPM/p.mole protein and 528 CPM/p.mole protein and 490 CPM/p.mole protein and 436 CPM/p.mole protein | 632 CPM/p.mole protein and 609 CPM/p.mole protein and 595 CPM/p.mole protein and 628 CPM/p.mole protein and 619 CPM/p.mole protein and 565 CPM/p.mole protein and 554 CPM/p.mole protein and 465 CPM/p.mole protein and 467 CPM/p.mole protein | 5 nM | 1.9 nM
